Test [1] concerns the target Casein kinase II subunit alpha' (Homo sapiens) (UniProt P19784). The test can be described thus: Residual activity of CK2alpha2 at 1 uM by microplate scintillation counting.
Test [2] deals with Vascular endothelial growth factor receptor 2 (Homo sapiens, UniProt P35968). The test can be described thus: Residual activity of VEGFR2 at 10 uM by microplate scintillation counting.
The target of test [3] is T1, Serine/threonine-protein kinase BRSK1 (Homo sapiens) (UniProt Q8TDC3).
T1 sequence (whole entry): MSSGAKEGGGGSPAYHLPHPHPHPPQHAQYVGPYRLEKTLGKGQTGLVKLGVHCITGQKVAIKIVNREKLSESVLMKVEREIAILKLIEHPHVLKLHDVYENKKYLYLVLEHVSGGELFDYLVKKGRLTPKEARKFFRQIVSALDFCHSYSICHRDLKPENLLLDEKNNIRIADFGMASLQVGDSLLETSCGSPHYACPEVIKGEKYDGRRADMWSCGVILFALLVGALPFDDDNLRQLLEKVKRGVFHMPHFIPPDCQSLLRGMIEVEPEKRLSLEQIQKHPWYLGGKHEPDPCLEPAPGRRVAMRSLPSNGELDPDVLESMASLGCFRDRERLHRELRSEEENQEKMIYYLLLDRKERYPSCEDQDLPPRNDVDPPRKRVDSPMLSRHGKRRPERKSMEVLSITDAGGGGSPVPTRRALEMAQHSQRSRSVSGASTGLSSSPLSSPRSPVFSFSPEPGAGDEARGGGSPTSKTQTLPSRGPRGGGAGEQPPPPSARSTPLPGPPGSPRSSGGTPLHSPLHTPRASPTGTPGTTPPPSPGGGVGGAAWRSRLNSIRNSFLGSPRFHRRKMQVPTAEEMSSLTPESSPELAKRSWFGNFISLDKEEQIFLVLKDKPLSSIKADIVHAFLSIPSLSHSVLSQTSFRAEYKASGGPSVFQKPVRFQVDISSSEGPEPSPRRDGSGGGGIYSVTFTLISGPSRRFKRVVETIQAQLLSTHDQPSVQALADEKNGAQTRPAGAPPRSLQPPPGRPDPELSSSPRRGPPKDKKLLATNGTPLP
Briefly: Residual activity of BRSK1 at 10 uM by microplate scintillation counting.

Test [4] has as its target Tyrosine-protein kinase Fgr (Homo sapiens) (UniProt P09769). Briefly: Residual activity of FGR at 0.1 uM by microplate scintillation counting.
Test [5] concerns the target Mast/stem cell growth factor receptor Kit (Homo sapiens) (UniProt P10721). The test can be described thus: Residual activity of wild type KIT at 0.1 uM by microplate scintillation counting.
The target in test [6] is Casein kinase II subunit alpha' (Homo sapiens) (UniProt P19784). The test can be described thus: Residual activity of CK2alpha2 at 0.1 uM by microplate scintillation counting.
Casein kinase II subunit alpha' (Homo sapiens), sequence (P19784 whole entry, looked up): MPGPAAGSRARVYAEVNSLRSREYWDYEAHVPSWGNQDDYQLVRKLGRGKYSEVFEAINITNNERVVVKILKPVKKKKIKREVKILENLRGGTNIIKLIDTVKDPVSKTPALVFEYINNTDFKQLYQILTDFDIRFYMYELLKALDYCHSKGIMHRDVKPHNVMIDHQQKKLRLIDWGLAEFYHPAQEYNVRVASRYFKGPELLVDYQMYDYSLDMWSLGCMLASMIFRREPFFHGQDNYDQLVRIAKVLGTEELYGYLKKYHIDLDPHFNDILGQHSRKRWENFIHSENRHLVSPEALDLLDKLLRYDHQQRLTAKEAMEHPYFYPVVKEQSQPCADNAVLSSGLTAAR
A short description of test [7]: Residual activity of PKA at 0.1 uM by microplate scintillation counting.
The target of test [8] is T2, Ephrin type-A receptor 1 (Homo sapiens) (UniProt P21709).
T2 sequence (whole entry): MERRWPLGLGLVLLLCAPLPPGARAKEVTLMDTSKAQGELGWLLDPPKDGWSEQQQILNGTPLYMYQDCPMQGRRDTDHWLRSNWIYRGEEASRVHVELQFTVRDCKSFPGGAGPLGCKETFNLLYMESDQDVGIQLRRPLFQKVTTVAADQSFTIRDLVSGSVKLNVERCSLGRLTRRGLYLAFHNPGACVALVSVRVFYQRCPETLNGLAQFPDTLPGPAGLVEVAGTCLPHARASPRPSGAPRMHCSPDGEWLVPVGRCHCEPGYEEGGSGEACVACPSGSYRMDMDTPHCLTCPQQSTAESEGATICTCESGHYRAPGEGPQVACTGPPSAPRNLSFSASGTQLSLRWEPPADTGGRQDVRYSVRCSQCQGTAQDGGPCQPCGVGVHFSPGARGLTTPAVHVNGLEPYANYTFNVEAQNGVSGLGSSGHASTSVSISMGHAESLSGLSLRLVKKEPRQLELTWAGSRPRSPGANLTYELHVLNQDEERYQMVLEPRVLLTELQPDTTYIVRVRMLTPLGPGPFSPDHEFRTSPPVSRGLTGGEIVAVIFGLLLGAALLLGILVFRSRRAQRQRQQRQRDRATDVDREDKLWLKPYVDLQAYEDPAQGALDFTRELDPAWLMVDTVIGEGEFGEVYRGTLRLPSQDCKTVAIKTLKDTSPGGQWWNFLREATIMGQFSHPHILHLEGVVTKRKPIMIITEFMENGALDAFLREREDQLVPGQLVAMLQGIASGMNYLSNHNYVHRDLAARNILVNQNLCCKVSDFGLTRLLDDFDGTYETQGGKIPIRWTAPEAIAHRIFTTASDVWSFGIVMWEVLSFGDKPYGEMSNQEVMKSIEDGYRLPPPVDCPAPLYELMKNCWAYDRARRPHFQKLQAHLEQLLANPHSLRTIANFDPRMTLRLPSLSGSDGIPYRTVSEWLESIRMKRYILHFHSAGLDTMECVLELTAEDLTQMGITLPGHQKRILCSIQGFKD
Briefly: Residual activity of EPHA1 at 10 uM by microplate scintillation counting.

The test system of test [9] is Epidermal growth factor receptor (Homo sapiens), P00533 [T790M]. The test can be described thus: Residual activity of EGFR T790M mutant at 0.1 uM by microplate scintillation counting.

Mast/stem cell growth factor receptor Kit (Homo sapiens), sequence (P10721 whole entry): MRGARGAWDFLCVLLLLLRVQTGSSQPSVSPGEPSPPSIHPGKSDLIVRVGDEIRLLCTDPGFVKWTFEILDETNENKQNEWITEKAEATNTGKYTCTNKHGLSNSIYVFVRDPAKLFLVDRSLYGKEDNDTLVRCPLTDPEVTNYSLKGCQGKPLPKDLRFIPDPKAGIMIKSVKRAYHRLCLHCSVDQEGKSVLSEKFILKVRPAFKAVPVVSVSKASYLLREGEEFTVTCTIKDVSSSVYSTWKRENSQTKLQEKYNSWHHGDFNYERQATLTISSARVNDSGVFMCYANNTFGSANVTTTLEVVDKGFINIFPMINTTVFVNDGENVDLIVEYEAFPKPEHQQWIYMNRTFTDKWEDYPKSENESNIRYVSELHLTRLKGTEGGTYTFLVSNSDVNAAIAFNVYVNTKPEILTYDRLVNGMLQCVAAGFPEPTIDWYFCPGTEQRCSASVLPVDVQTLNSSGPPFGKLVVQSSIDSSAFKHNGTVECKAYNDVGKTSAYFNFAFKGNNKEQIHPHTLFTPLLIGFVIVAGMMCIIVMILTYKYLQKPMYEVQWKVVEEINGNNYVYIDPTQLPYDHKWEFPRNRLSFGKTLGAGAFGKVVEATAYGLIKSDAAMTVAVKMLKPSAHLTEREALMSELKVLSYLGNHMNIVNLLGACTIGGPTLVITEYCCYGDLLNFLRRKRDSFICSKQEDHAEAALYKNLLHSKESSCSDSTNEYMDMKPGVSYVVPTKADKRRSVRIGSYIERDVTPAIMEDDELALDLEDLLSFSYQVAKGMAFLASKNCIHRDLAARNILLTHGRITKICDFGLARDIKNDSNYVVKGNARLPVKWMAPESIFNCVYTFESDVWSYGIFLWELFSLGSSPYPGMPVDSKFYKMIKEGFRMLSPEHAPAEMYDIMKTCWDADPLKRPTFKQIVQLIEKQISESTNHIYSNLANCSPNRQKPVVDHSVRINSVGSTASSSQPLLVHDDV
Vascular endothelial growth factor receptor 2, sequence (P35968 whole entry): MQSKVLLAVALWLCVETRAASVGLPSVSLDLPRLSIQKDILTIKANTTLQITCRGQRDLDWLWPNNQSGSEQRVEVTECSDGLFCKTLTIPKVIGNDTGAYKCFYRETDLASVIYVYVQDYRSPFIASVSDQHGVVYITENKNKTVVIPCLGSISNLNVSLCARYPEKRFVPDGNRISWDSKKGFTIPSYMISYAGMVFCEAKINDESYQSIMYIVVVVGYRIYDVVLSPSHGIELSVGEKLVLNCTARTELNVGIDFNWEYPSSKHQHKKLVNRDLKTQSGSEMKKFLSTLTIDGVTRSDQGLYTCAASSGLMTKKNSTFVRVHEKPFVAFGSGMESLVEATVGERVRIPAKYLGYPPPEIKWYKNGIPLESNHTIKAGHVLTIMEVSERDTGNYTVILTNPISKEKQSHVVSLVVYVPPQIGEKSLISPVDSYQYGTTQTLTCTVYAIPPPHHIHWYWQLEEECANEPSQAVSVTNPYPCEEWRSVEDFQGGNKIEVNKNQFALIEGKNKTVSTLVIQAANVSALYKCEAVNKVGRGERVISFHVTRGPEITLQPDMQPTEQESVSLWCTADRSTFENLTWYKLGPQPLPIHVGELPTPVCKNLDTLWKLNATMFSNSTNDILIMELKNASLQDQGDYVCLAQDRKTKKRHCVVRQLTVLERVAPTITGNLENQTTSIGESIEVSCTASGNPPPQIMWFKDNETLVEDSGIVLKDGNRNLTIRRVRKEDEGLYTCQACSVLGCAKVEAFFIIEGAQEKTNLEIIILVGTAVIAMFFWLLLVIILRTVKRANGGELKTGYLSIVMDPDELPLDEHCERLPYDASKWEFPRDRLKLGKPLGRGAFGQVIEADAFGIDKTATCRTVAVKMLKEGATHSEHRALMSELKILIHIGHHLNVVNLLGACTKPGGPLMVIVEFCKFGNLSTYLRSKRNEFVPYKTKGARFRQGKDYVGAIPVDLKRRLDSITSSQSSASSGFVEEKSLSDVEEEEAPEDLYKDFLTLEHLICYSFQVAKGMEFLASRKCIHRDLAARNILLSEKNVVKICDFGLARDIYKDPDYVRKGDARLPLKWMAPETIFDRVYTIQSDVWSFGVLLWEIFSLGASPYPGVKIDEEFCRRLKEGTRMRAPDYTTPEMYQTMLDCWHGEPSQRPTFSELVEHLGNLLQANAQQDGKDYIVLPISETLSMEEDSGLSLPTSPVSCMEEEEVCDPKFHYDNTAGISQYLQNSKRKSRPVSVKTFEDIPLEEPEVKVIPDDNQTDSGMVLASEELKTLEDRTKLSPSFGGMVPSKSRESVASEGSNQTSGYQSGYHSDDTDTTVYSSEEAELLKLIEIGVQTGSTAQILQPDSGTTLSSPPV
Tyrosine-protein kinase Fgr (Homo sapiens), sequence (P09769 2-529 limits assumed): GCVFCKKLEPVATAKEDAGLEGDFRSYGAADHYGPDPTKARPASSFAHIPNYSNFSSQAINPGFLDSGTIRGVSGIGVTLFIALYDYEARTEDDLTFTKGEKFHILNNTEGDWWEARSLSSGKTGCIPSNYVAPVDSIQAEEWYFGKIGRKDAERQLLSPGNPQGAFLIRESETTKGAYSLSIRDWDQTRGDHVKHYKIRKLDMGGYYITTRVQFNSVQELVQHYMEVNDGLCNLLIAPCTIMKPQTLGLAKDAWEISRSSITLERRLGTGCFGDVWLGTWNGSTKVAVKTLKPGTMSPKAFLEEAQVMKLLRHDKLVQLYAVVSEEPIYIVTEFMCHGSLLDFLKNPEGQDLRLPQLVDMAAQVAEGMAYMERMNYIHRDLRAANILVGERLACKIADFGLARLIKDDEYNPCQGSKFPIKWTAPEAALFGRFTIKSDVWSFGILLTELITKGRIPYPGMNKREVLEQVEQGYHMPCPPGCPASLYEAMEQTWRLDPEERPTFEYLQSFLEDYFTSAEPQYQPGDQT

One may read the residual activity as the signal under treatment as a percentage of the control signal. As to `COc1cc2c(Oc3ccc(-c4nc5ccccc5s4)cc3)ncnc2cc1OCCCN1CCCC1`, the residual activity in [1] is 88%; in [2] it was 5%; in test [3], 99%; in [4], 96%; in test [5] it was 101%; in test [6] it was 91%. Besides, the residual activity in [7] turned out to be 95%; in test [8], 199%; in test [9] it was 68%.

Consider `COc1cc2c(Oc3ccc(-c4nc5ccccc5s4)cc3F)ncnc2cc1OCCCN1CCN(C)CC1`, for which the residual activity in test [1] is 89%; in test [2], 5%; in [3], 103%; in [4], 103%; in test [5], 96%; in test [6] it was 88%. The residual activity in test [7] amounted to 98%; in [8], 79%; in test [9], 85%.

Turning to `COc1cc2c(Oc3ccc(-c4nc5ccccc5s4)cc3)ncnc2cc1OCCCN1CCN(C)CC1`, the residual activity in test [1] turned out to be 96%; in test [2] it was 6%; in test [3], 100%; in test [4] it was 103%; in test [5] it was 96%; in [6] it was 98%. The figures for the residual activity in [7], in [8] and in [9] were 89%, 169% and 97%, respectively.

Source of the values: ChEMBL document CHEMBL1152560, “Substituted 2-arylbenzothiazoles as kinase inhibitors: hit-to-lead optimization” (Bioorg Med Chem, 2009).
